# Experimental data taken from US20100303933A1, “IMMUNOPOTENTIATING COMPOSITION FROM LABISIA PUMILA EXTRACT” (HOLISTA BIOTECH SDN. BHD., priority 2007, published 2010).
# Marks after values point to notes of the source that are not given here.
# What was measured:
# [1] = system: peritoneal murine macrophages; test: Phagocytic response in vitro: heat killed Candida albicans ingested by peritoneal macrophages; type: cell-based; settings: 10 μg/ml (Levamisole)
# Procedure: Peritoneal macrophage cells (2×10^6) were allowed to adhere to glass cover slip for 90 minutes at 37° C. in 5% CO2 incubator (95% humidity). Simultaneously heat killed Candida albicans cells (100° C., 60 minutes) were opsonized for 90 minutes with 20% autologous serum to promote phagocytosis. The samples were washed with PBS and immediately evaluated microscopically. The percentage and average number of Candida albicans cells (heat killed) ingested by peritoneal murine macrophages was calculated.
# skin allograft = test: Skin allograft rejection (CMI response); type: in vivo, mice; settings: 2.5 mg/kg p.o. (Levamisole)
# Procedure: Skin allograft rejection: Mice were employed for the skin transplantation that were administered LPPM/A003 daily for 7 days and the graft rejection time (GRT) was recorded by daily observation of the epithelial survival.
# [2] = system: reticuloendothelial system; test: Phagocytic response in vivo: clearance of carbon particles from circulation; parameters: species or system mice; settings: dose 2.5 mg/ml p.o. (Levamisole)
# Procedure: The phagocytic function of the reticuloendothelial system was assayed in groups of six mice each by injecting i.v. 160 mg/kg of 1.6% suspension of gelatin stabilized carbon particles of […] size (Atal et al., 1986). Blood samples were collected before and at intervals varying between 2 to 90 min after carbon injection. An aliquot (10 μL) of blood samples were lysed with 2 mL of 0.1% acetic acid and the transparency determined spectrophotometrically at 675 nm (Uvikon 810, spectrophotometer, Kontron Ltd, Switzerland) as per the method of Hudson and Hay (1980).
smiles,measurement,setting,value
c1ccc([C@H]2CN3CCSC3=N2)cc1 [Levamisole],% Phagocytosis In vitro study Mean ± S.E.,[1],43.11 ± 2.92 %
same,Rejection Time Days Mean ± S.E.,skin allograft,8.50 ± 0.22 days
same,Graft Rejection (Percent),skin allograft; ↑ hastened,34.61^b ↑ Percent
same,% Phagocytosis Ex -In vivo study Mean ± S.E.,[2],1.78 ± 0.11 %
